The source of these data is paper PMC8067632, “Assessment and Development of the Antifungal Agent Caspofungin for Aerosolized Pulmonary Delivery” (Pharmaceutics, 2021).

In data set [1] the test system is Candida albicans ATCC44858. Put plainly: microbe, parasite or virus in culture. It counts as cell-based. As to conditions: CLSI broth microdilution, visual, duplicate. How it is done:
(§1) Antifungal potency of the test article(s) was measured using the in vitro broth microdilution assay under test conditions described by the Clinical and Laboratory Standards Institute. Minimum Inhibitory Concentration (MIC) is defined as the lowest concentration of an agent that causes a specified reduction in visible growth of the microorganism. Minimum Effective Concentration (MEC) is defined as the lowest concentration of an agent that leads to the growth of small, rounded, compact hyphal forms, as compared to the hyphal growth typically seen in the growth control well. MIC values were determined for 9 Candida spp., and MEC values were determined for filamentous fungus species (Aspergillus fumigatus and Trichophyton rubrum). Details of the test article preparations and methodologies are described in Supplementary Material S1.
(§2) Following incubation, the test plates were visually examined and wells were scored for growth or complete growth inhibition to define the MIC values. Microscopy examination was used to determine the MEC values. Each test substance was evaluated in duplicate and the results are the duplicate test values. Vehicle-control and an active reference agent were used as blank and positive controls, respectively. […]
(§3) S1. In Vitro Testing, Test Article Preparations
(§4) The 5 mg/mL stock solution was prepared as the following. The refrigerated vial was equilibrated to room temperature. Test vial was reconstituted aseptically with 10.5 mL 0.9% NaCl. The powder was dissolved completely, mixing until a clear solution was ob-tained. The final concentration was 5.0 mg/mL of caspofungin freebase. The reconstituted solution was stable for 1 hr at room temperature. The 5 mg/mL stock solution was then […]
(§5) The refrigerated vial was equilibrated to room temperature. The powder was dis-solved completely, mixing until a clear solution was obtained. Test vial was reconstituted aseptically with 1.8 mL 0.9% NaCl. The white to off-white powder was dissolved com-pletely, mixing gently until a clear solution was obtained. The final concentration was 5.0 mg/mL of caspofungin freebase. The reconstituted solution was used within 1 hr at room temperature. The 5 mg/mL stock solution was then diluted with 0.9% NaCl to prepare the […]
(§6) 1.3. Caspofungin Diacetate
(§7) The 5 mg/mL API stock solution was prepared as the following. The refrigerated vial was equilibrated to room temperature. Test vial was filled aseptically with 1.8 mL 0.9%
(§8) NaCl. The powder was dissolved completely, mixing until a clear solution was obtained.
(§9) The final concentration was 5.0 mg/mL of caspofungin freebase. The reconstituted solu-tion was used within 1 hr at room temperature. The 5 mg/mL stock solution was then […]
(§10) g compound, corresponding to 1.2 mg active compound with a correction factor of 2.40 was added 0.375 mL of water for injection to generate the 3.2 mg/mL working stock solution for testing. The 3.2 mg/mL working stock solution was 2-fold diluted seri-ally in 0.9% NaCl to prepare a total of eleven 50-fold stock solutions, concentrations rang-ing from 3.2 to 0.003 mg/mL. A 4 μL aliquot of each dilution was added to 196 μL of broth medium seeded with the organism suspension in wells of a 96 well plate (fungal cell count: 1 x 10^3 to 1 x 10^4 colony forming units per mL). The final volume was 200 μL in each […]
Background: Dilution methods test growth across graded concentrations, often in twofold steps.

Data set [2] concerns Candida albicans ATCC90028. In words: microbe, parasite or virus in culture. It counts as cell-based. As to conditions: CLSI broth microdilution, visual, duplicate. How it is done: as §1, §2, §3, §4, §5, §6, §7, §8, §9, §10
Data set [3] concerns Aspergillus fumigatus ATCC 13073. Put plainly: Broth microdilution MEC. It counts as cell-based. As to conditions: CLSI broth microdilution, microscopy, duplicate. How it is done: as §1, §2, §3, §4, §5, §6, §7, §8, §9, §10
The subject of data set [4] is Aspergillus fumigatus ATCC204305. Put plainly: Broth microdilution MEC. It counts as cell-based. The settings on record: CLSI broth microdilution, microscopy, duplicate. How it is done: as §1, §2, §3, §4, §5, §6, §7, §8, §9, §10
For data set [5], the system named is Trichophyton rubrum ATCC 10218. In words: Broth microdilution MEC. It counts as cell-based. As to conditions: CLSI broth microdilution, microscopy, duplicate. How it is done:
as §1, §2, §3, §4, §5, §6, §7, §8, §9, §10

The nature of data set [6]: Aerosol characterization (PARI LC Star nebulizer, QCM cascade impactor). It counts as physicochemical. The settings on record: 10 mg/mL caspofungin diacetate, determined once. How it is done: Aerosol particle size distribution was determined once with a quartz crystal microbalance (QCM) cascade impactor (California Measurements Inc., Sierra Madre, CA, USA) equipped with 10 stages to collect size-segregated samples. The mass median aerodynamic diameter (MMAD) and geometric standard deviation (GSD) were calculated from the mass accumulated on each collection stage of the QCM. Each formulation was tested by aerosolizing it with a PARI LC Star nebulizer (PARI Respiratory Equipment, Inc., Midlothian, VA, USA) connected to compressed air at 28 psi. The air flow to the nebulizer was about 6.2 L/min. Approximately 7 mL of the test formulation solution was placed in the nebulizer, weighed and connected to the air supply for aerosolization. The nebulizer was operated for 12 min, and post weighed. The generated aerosol was delivered into a plenum with a narrow opening. A stream of test aerosol was sampled from the plenum for particle size determination. A Quartz Crystal Microbalance based cascade impactor (TSI Inc., Shoreview, MN, USA) was used for these determinations. Details of the formulation preparations are described in Supplementary Material S3.
S3. Aerosol Characterization
(PVP K30, 100 mg/mL) were prepared. […]
osols for the purpose of comparing particle size.
S3.1. Preparation of Caspofungin Diacetate Stock Solution: […]
and recorded once during the exposure. […]

Data set [7] has as its system invasive aspergillosis patients. The settings on record: cited from earlier work. An excerpt:
Invasive Pulmonary Aspergillosis (IPA) and Pneumocystis jiroveci Pneumonia (PCP) are serious fungal pulmonary diseases for immunocompromised patients. The brand name drug […]® (Caspofungin acetate for injection) is FDA approved to treat IPA, but is only 40% effective. Efficacious drug levels at the lung infection site are not achieved by systemic administration. Increasing the dose leads to toxicity. The objective, here, is to reformulate caspofungin for aerosolization to high drug concentration by lung targeted delivery and avoid systemic distribution. Described in this paper is a new, ... || Morphologically Aspergillus grows and propagates within the lung cavity. […] This may explain low human efficacy (40%) of caspofungin in treating IPA. Drug concentr ... || Caspofungin for injection (tradename: […]®) is sold by Merck & Co., Inc. The approved […]® dose is a 70 mg loading dose and then 50 mg/daily. Previous intravenous (IV) studies with caspofungin in animals have shown that IV administered drug only delivers about 5% of the drug level in blood to the lungs. […] Most of the IV drugs is distributed to other sensitive target organs, such as the liver and kidneys, which if given in higher doses, can lead ... || (+ 1 further places)

Consider `CC[C@H](C)C[C@H](C)CCCCCCCCC(=O)N[C@H]1C[C@@H](O)[C@@H](NCCN)NC(=O)[C@@H]2[C@@H](O)CCN2C(=O)[C@H]([C@H](O)CCN)NC(=O)[C@H]([C@H](O)[C@@H](O)c2ccc(O)cc2)NC(=O)[C@@H]2C[C@@H](O)CN2C(=O)[C@H]([C@@H](C)O)NC1=O` [Caspofungin Diacetate], for which the MIC in data set [1] and in data set [2] was 0.25 µg/mL each time. Besides, the MEC in data set [3] was found to be 0.0625 µg/mL; in data set [4], 0.125 µg/mL; in data set [5] it was 0.125 µg/mL. Besides, in data set [6], the “MMAD (Mass Median Aerodynamic Diameter)” value is 1.15 microns. In addition, in data set [7] (IPA patients, high dose group 200 mg/day intravenously), the “response rate (complete or partial response)” value was 60%. Further, in data set [7] (IPA patients, standard dose group IV), the favorable response is recorded as 44%. In addition, in data set [7] (high dose group 200 mg/day IV, elevated liver enzymes and liver failure), the “patients presenting with liver toxicity” value is 65%. Moreover, the liver enzyme abnormalities result in data set [7] (standard dose group IV) is on record as “No liver enzyme abnormalities were observed”.
